This passage reports TGI results from PubChem BioAssay (NCI).

Among the test systems are 786-0 renal; CAKI-1 renal; COLO 205 colon; HOP-62 NSCLC; HS 578T breast; NCI-H460 lung; OVCAR-3 ovarian; OVCAR-5 ovarian; PC-3 prostate; SF-268 CNS; SF-539 CNS; SK-OV-3 ovarian; SN12C renal; SNB-19 CNS; U251 CNS; K-562 leukemia; RPMI-8226 leukemia.
What all share (experiment): DTP human tumour cell line panel, 48 h

The structures appear in SMILES notation.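 Test compounds were applied to cells in 96-well plates for 48 hours at 5 doses. TGI: concentration producing complete growth inhibition.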 A value given as a limit tells only on which side of the number the result lay.

Turning to `CCOC(=O)c1c[nH]c2c(Sc3ccccc3)nccc2c1=O`, the TGI in the assay on 786-0 renal, in the assay on CAKI-1 renal, with COLO 205 colon, with HOP-62 NSCLC, in the assay on HS 578T breast and in the assay with NCI-H460 lung was above 100 µM throughout. Moreover, the TGI in the assay with OVCAR-3 ovarian, in the assay on OVCAR-5 ovarian, in the assay on PC-3 prostate, in the assay on SF-268 CNS, with SF-539 CNS and in the assay on SK-OV-3 ovarian was above 100 µM each time. Moreover, the TGI with SN12C renal, in the assay on SNB-19 CNS and with U251 CNS was above 100 µM throughout.
`Cc1cn([C@@H]2C[C@@H]2CO)c(=O)[nH]c1=O`: the TGI with 786-0 renal, in the assay with CAKI-1 renal, in the assay with COLO 205 colon, in the assay on HOP-62 NSCLC, in the assay on HS 578T breast and in the assay with K-562 leukemia was above 100 µM in each case. For the same molecule, the TGI in the assay on NCI-H460 lung, in the assay with OVCAR-5 ovarian, in the assay with PC-3 prostate, with RPMI-8226 leukemia, with SF-268 CNS and in the assay with SF-539 CNS was above 100 µM each time. In addition, the TGI with SN12C renal, with SNB-19 CNS and in the assay on U251 CNS was above 100 µM each time.
Consider `O=C1NC(N2CCOCC2)=N/C1=C\c1ccc(Cl)cc1`, for which the total growth inhibition concentration (TGI) in the assay on 786-0 renal, with CAKI-1 renal, in the assay on COLO 205 colon, with HOP-62 NSCLC, in the assay with HS 578T breast and in the assay on OVCAR-3 ovarian was above 100 µM each time. The TGI in the assay on OVCAR-5 ovarian, in the assay on PC-3 prostate, in the assay on RPMI-8226 leukemia, in the assay with SF-268 CNS, in the assay with SF-539 CNS and with SK-OV-3 ovarian was above 100 µM each time. For the same molecule, the TGI with SN12C renal, in the assay on SNB-19 CNS and with U251 CNS was above 100 µM each time.
`COc1ccc(C2N(c3ccc(F)cc3)C(=O)N3C(c4ccc(OC)cc4)N(c4ccc(F)cc4)C(=O)N23)cc1` (configuration not stated): the concentration for total growth inhibition (TGI) in the assay on 786-0 renal, with CAKI-1 renal, in the assay on COLO 205 colon, with HOP-62 NSCLC, in the assay on HS 578T breast and with NCI-H460 lung was above 100 µM throughout. For the same molecule, the TGI in the assay with OVCAR-3 ovarian, with OVCAR-5 ovarian, in the assay with PC-3 prostate, in the assay with RPMI-8226 leukemia, in the assay with SF-268 CNS and in the assay with SF-539 CNS was above 100 µM in each case. Further, the TGI in the assay with SN12C renal, in the assay on SNB-19 CNS and in the assay with U251 CNS was above 100 µM each time.
`COc1ccc(N=NC(=O)NC(Cc2ccccc2)C(=O)O)cc1` (configuration not stated): the TGI with 786-0 renal, with CAKI-1 renal, in the assay on COLO 205 colon, with HOP-62 NSCLC, in the assay with HS 578T breast and in the assay with K-562 leukemia was above 100 µM throughout. The TGI with NCI-H460 lung, in the assay with OVCAR-3 ovarian, in the assay on OVCAR-5 ovarian, in the assay on PC-3 prostate, in the assay on RPMI-8226 leukemia and with SF-268 CNS was above 100 µM in each case. The TGI in the assay with SF-539 CNS, in the assay with SN12C renal, with SNB-19 CNS and in the assay with U251 CNS was above 100 µM throughout.
As for `O=c1c2cc(I)ccc2nc(SCc2nncs2)n1Cc1ccccc1`, the TGI (as a rule, the concentration at which net growth stops) is above 100 µM in the assay on 786-0 renal; above 100 µM with COLO 205 colon; above 100 µM in the assay on HOP-62 NSCLC; 57.8 µM in the assay with HS 578T breast; above 100 µM in the assay on K-562 leukemia; above 100 µM in the assay with NCI-H460 lung. For the same molecule, the TGI is above 100 µM with OVCAR-3 ovarian; above 100 µM in the assay with OVCAR-5 ovarian; above 100 µM in the assay on PC-3 prostate; above 100 µM in the assay with RPMI-8226 leukemia; above 100 µM in the assay with SF-268 CNS; 84.1 µM in the assay with SF-539 CNS. Besides, the TGI in the assay with SK-OV-3 ovarian, in the assay with SN12C renal, in the assay with SNB-19 CNS and in the assay with U251 CNS was above 100 µM each time.
Consider `CC(C)=CCC[C@]1(C)C=Cc2c(O)c3c(c(CC=C(C)C)c2O1)O[C@]12C(=C[C@@H]4CC1C(C)(C)O[C@@]2(C/C=C(/C)C(=O)O)C4=O)C3=O`, for which the TGI was 2.4 µM with 786-0 renal; 3.66 µM with CAKI-1 renal; 3.11 µM in the assay on HOP-62 NSCLC; 9.68 µM in the assay on HS 578T breast; 3.27 µM with NCI-H460 lung; 2.67 µM in the assay with OVCAR-3 ovarian. Further, the TGI was 2.94 µM in the assay with OVCAR-5 ovarian; 2.23 µM in the assay on PC-3 prostate; 1.61 µM with RPMI-8226 leukemia; 3.91 µM with SF-268 CNS; 0.477 µM in the assay on SF-539 CNS; 8.54 µM in the assay on SK-OV-3 ovarian. Besides, the TGI was determined as 4.69 µM with SN12C renal, 7.36 µM in the assay on SNB-19 CNS and 3.31 µM in the assay with U251 CNS.
For `C[C@@H](c1ccccc1)n1c(N)c(-c2ccccn2)c2ccc([N+](=O)[O-])cc2c1=O`, the TGI in the assay on 786-0 renal, in the assay with CAKI-1 renal, in the assay with COLO 205 colon, in the assay with HS 578T breast, in the assay with NCI-H460 lung and in the assay with PC-3 prostate was above 100 µM in each case. For the same molecule, the TGI in the assay on SF-268 CNS, in the assay with SN12C renal, in the assay on SNB-19 CNS and with U251 CNS was above 100 µM in each case.
On to `COc1ccc(N=N/C(=N/NC(=O)c2ccc(C)cc2)c2ccc(N(CCC#N)CCC#N)cc2OC)cc1`, for which the TGI with 786-0 renal, in the assay with CAKI-1 renal, with COLO 205 colon, with HOP-62 NSCLC, with HS 578T breast and with K-562 leukemia was above 100 µM each time. The TGI in the assay on NCI-H460 lung, in the assay on OVCAR-3 ovarian, in the assay with OVCAR-5 ovarian, in the assay on PC-3 prostate, in the assay with SF-268 CNS and with SK-OV-3 ovarian was above 100 µM throughout. In addition, the TGI with SN12C renal, with SNB-19 CNS and with U251 CNS was above 100 µM in each case.
